Where no end group is shown, it is not given here.
Test system: T84 monolayers
Excerpt: T84 cells are a human colonic epithelial cell line that differentiates and creates tight junctions. T84 cells are a model for colonic inflammation.

Sequence: GGVLVQPG (SEQ ID NO:1) [Larazotide]
- concentration dependence of the effect of protecting T84 monolayers from disruption by Streptococcus KS47 (FIG. 3): concentration dependent
- protection of T84 monolayers from disruption by Shigella (T84 human colonic epithelial cell line, FIG. 1): does not protect
